Laboratory results: PubChem BioAssay AID1963842 (Molecular Pharmacology Branch, DTP, NCI, 2024)
pIC50: −log10 of the molar value.

Test system: 677734-321-R-J1-PDC complex spheroid viability
Experiment: Anticancer human tumor 677734-321-R-J1-PDC patient-derived soft tissue sarcoma cell line growth inhibition [POLQ]
Settings: for pIC50: curve of first compound; for viability, T/C: stronger effect = lower value
Method in brief: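 Three-cell-type spheroids modelling solid tumor plus stroma served as the readout system; POL inhibitors were tested individually and in combination, concentration ranges set by clinical Cmax where known.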

[1] = second compound 0.0316 µM, first compound 0.0316 µM
[2] = second compound 0.0316 µM, first compound 0.1 µM
[3] = second compound 0.0316 µM, first compound 0.316 µM
[4] = second compound 0.0316 µM, first compound 1 µM
[5] = second compound 0.0316 µM, first compound 3.16 µM
[6] = second compound 0.0316 µM, first compound 10 µM
[7] = second compound 0.1 µM, first compound 0.0316 µM
[8] = second compound 0.1 µM, first compound 0.1 µM
[9] = second compound 0.1 µM, first compound 0.316 µM
[10] = second compound 0.1 µM, first compound 1 µM
[11] = second compound 0.1 µM, first compound 3.16 µM
[12] = second compound 0.1 µM, first compound 10 µM
[13] = second compound 0.316 µM, first compound 0.0316 µM
[14] = second compound 0.316 µM, first compound 0.1 µM
[15] = second compound 0.316 µM, first compound 0.316 µM
[16] = second compound 0.316 µM, first compound 1 µM
[17] = second compound 0.316 µM, first compound 3.16 µM
[18] = second compound 0.316 µM, first compound 10 µM
[19] = second compound 1 µM, first compound 0.0316 µM
[20] = second compound 1 µM, first compound 0.1 µM
[21] = second compound 1 µM, first compound 0.316 µM
[22] = second compound 1 µM, first compound 1 µM
[23] = second compound 1 µM, first compound 3.16 µM
[24] = second compound 1 µM, first compound 10 µM
[25] = second compound 3.16 µM, first compound 0.0316 µM
[26] = second compound 3.16 µM, first compound 0.1 µM
[27] = second compound 3.16 µM, first compound 0.316 µM
[28] = second compound 3.16 µM, first compound 1 µM
[29] = second compound 3.16 µM, first compound 3.16 µM
[30] = second compound 3.16 µM, first compound 10 µM
[31] = second compound 10 µM, first compound 0.0316 µM
[32] = second compound 10 µM, first compound 0.1 µM
[33] = second compound 10 µM, first compound 0.316 µM
[34] = second compound 10 µM, first compound 1 µM
[35] = second compound 10 µM, first compound 3.16 µM
[36] = second compound 10 µM, first compound 10 µM
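Also: spheroids exposed to compounds for one week.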
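For viability, T/C in this document: 100% = vehicle DMSO treated spheroids.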

C#Cc1c(F)ccc2cc(O)cc(-c3ncc4c(N5CC6CCC(C5)N6)nc(OCC56CCCN5CC(F)C6)nc4c3F)c12 (stereo unspecified) + Nc1ccc(C#CCN(C(=O)Cc2ncc(C(F)(F)F)cc2C(F)(F)F)c2ccc(F)cc2)nn1
pIC50 (second compound 0.0316 µM): < 5.00
pIC50 (second compound 0.1 µM): < 5.00
pIC50 (second compound 0.316 µM): < 5.00
pIC50 (second compound 1 µM): < 5.00
pIC50 (second compound 3.16 µM): < 5.00
pIC50 (second compound 10 µM): < 5.00
viability, T/C [1]: 104%
viability, T/C [2]: 117%
viability, T/C [3]: 115%
viability, T/C [4]: 117%
viability, T/C [5]: 115%
viability, T/C [6]: 98.7%
viability, T/C [7]: 106%
viability, T/C [8]: 116%
viability, T/C [9]: 112%
viability, T/C [10]: 118%
viability, T/C [11]: 98.4%
viability, T/C [12]: 79.6%
viability, T/C [13]: 113%
viability, T/C [14]: 124%
viability, T/C [15]: 96.9%
viability, T/C [16]: 110%
viability, T/C [17]: 103%
viability, T/C [18]: 103%
viability, T/C [19]: 105%
viability, T/C [20]: 104%
viability, T/C [21]: 109%
viability, T/C [22]: 114%
viability, T/C [23]: 119%
viability, T/C [24]: 94.1%
viability, T/C [25]: 114%
viability, T/C [26]: 98%
viability, T/C [27]: 122%
viability, T/C [28]: 111%
viability, T/C [29]: 96.8%
viability, T/C [30]: 96.5%
viability, T/C [31]: 107%
viability, T/C [32]: 99.8%
viability, T/C [33]: 112%
viability, T/C [34]: 108%
viability, T/C [35]: 94.8%
viability, T/C [36]: 88.8%

CC1COCCN1c1cc(-c2ccnn2C)c2ccnc(-c3ccn[nH]3)c2n1 (stereo unspecified) + Nc1ccc(C#CCN(C(=O)Cc2ncc(C(F)(F)F)cc2C(F)(F)F)c2ccc(F)cc2)nn1
pIC50 (second compound 0.0316 µM): 7.06
pIC50 (second compound 0.1 µM): 7.16
pIC50 (second compound 0.316 µM): 7.23
pIC50 (second compound 1 µM): 7.22
pIC50 (second compound 3.16 µM): 7.25
pIC50 (second compound 10 µM): 7.26
viability, T/C [1]: 74.6%
viability, T/C [2]: 46.8%
viability, T/C [3]: 11.6%
viability, T/C [4]: 8.34%
viability, T/C [5]: 8.12%
viability, T/C [6]: 8.31%
viability, T/C [7]: 92.1%
viability, T/C [8]: 30.4%
viability, T/C [9]: 10.6%
viability, T/C [10]: 9.63%
viability, T/C [11]: 8.82%
viability, T/C [12]: 8.21%
viability, T/C [13]: 82.1%
viability, T/C [14]: 23.7%
viability, T/C [15]: 8.36%
viability, T/C [16]: 8.25%
viability, T/C [17]: 7.35%
viability, T/C [18]: 8.3%
viability, T/C [19]: 89.5%
viability, T/C [20]: 19.4%
viability, T/C [21]: 9.09%
viability, T/C [22]: 10.1%
viability, T/C [23]: 7.46%
viability, T/C [24]: 7.2%
viability, T/C [25]: 77%
viability, T/C [26]: 21.9%
viability, T/C [27]: 17.6%
viability, T/C [28]: 8.48%
viability, T/C [29]: 7.93%
viability, T/C [30]: 7.03%
viability, T/C [31]: 82.8%
viability, T/C [32]: 15%
viability, T/C [33]: 9.59%
viability, T/C [34]: 9.21%
viability, T/C [35]: 10.5%
viability, T/C [36]: 11.5%

CC1COCCN1c1cc(C2(O)CC3CCC(C2)O3)c2cnn(-c3ccn[nH]3)c2n1 (stereo unspecified) + Nc1ccc(C#CCN(C(=O)Cc2ncc(C(F)(F)F)cc2C(F)(F)F)c2ccc(F)cc2)nn1
pIC50 (second compound 0.0316 µM): > 7.50
pIC50 (second compound 0.1 µM): > 7.50
pIC50 (second compound 0.316 µM): > 7.50
pIC50 (second compound 1 µM): > 7.50
pIC50 (second compound 3.16 µM): > 7.50
pIC50 (second compound 10 µM): > 7.50
viability, T/C [1]: 36.8%
viability, T/C [2]: 20.4%
viability, T/C [3]: 7.94%
viability, T/C [4]: 7.29%
viability, T/C [5]: 8.37%
viability, T/C [6]: 6.3%
viability, T/C [7]: 48.2%
viability, T/C [8]: 15%
viability, T/C [9]: 10.1%
viability, T/C [10]: 7.88%
viability, T/C [11]: 10.1%
viability, T/C [12]: 7.23%
viability, T/C [13]: 35.1%
viability, T/C [14]: 11.7%
viability, T/C [15]: 8.93%
viability, T/C [16]: 7.29%
viability, T/C [17]: 7.85%
viability, T/C [18]: 6.34%
viability, T/C [19]: 44.7%
viability, T/C [20]: 15.9%
viability, T/C [21]: 8.7%
viability, T/C [22]: 7.59%
viability, T/C [23]: 8.26%
viability, T/C [24]: 6%
viability, T/C [25]: 45.2%
viability, T/C [26]: 12.9%
viability, T/C [27]: 10%
viability, T/C [28]: 8.6%
viability, T/C [29]: 8.2%
viability, T/C [30]: 4.99%
viability, T/C [31]: 35.5%
viability, T/C [32]: 26.6%
viability, T/C [33]: 7.13%
viability, T/C [34]: 10.5%
viability, T/C [35]: 7.26%
viability, T/C [36]: 11.5%
